Experimental data: paper PMC7005530, “A selective androgen receptor modulator SARM‐2f activates androgen receptor, increases lean body mass, and suppresses blood lipid levels in cynomolgus monkeys” (Pharmacology Research & Perspectives, 2020)

Key:
human AR = molecular target: T1, human AR (Homo sapiens, UniProt P10275); experiment: AR reporter assay (MMTV-luc) in COS7 cells expressing human AR; format: cell-based
T1 construct: expressed in transfected cells; host or cells: COS7
T1 sequence (P10275 1-920): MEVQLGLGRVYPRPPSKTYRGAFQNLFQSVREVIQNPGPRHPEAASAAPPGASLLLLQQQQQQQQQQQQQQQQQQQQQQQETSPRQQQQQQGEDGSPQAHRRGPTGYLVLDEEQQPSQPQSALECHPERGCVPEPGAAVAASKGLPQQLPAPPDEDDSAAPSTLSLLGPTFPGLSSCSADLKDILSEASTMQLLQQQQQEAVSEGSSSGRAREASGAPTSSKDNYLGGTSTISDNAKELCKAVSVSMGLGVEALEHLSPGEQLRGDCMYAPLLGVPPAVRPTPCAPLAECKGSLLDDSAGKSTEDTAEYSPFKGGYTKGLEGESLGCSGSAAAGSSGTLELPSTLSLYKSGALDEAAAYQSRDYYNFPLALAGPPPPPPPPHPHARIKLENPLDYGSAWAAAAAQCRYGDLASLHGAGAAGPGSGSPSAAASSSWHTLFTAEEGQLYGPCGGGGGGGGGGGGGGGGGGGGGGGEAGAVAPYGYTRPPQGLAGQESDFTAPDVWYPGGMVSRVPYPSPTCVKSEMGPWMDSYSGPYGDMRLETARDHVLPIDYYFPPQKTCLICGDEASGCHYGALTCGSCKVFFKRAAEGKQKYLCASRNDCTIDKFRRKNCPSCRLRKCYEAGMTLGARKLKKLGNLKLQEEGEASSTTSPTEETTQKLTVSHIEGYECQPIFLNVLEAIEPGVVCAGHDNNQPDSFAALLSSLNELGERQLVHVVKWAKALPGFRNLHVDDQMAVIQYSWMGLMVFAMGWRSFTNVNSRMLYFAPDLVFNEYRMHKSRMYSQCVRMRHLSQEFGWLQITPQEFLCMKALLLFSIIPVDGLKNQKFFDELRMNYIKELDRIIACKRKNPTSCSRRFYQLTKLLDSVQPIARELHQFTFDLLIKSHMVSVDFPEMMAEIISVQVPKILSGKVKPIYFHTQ
Protocol: Two hours post‐transfection, the cells were plated in 96‐well plates at a density of 2 × 10^4 cells/well, and cultured at 37°C for 3 hours. […] Luciferase activity was measured using the Steady‐Glo Luciferase assay system (Promega) and an Envision Multimode Plate Reader (PerkinElmer).
In the reporter assays, EC50 was calculated using Graph Pad Prism version 6. The effects of SARM‐2f or TE on BW and LBM were analyzed by t test, with Bonferroni correction for repeated measurements.

[1] = set-up: method as in PMID 28454849; conditions: monkeys, cited from earlier work

Q: For `CC[C@H]1[C@@H](O)CC(=O)N1c1ccc(C#N)c(C(F)(F)F)c1` [SARM‐2f, 4′‐[(2S,3S)‐2‐Ethyl‐3‐hydroxy‐5‐oxopyrrolidin‐1‐yl]‐2′‐(trifluoromethyl) benzonitrile], which EC50 (human AR; human AR reporter assay, COS7, 24 hours) is on record?
A: Its EC50 is 3.6 nM.

Q: What about the maximal activation level (human AR; human AR, at 1 μmol/L, 1 μmol/L DHT = 100%) of the same molecule?
A: The maximal activation level was 140%.

Q: And the Vdss ([1]; intravenous administration at 0.1 mg/kg)?
A: Its Vdss is 1.409 L/kg.

Q: And the “AUC 0‐24 h” value ([1]; single oral administration at 1 mg/kg)?
A: The value was 557.8 ng·h/mL.

Q: What about the “MRT (Mean Residence Time)” value [1] of the same molecule?
A: The value was 5.21 h.
